Here are results for 55 compounds from ChEMBL document CHEMBL2363022, “Malaria Box Schistosomiasis Screening Data” (2013).

Structures are written as SMILES.

What all share (assay type): functional
Holding throughout (set-up): scale not given here

In assay [1] the test system is Schistosoma mansoni.
In assay [2] the test system is Schistosoma mansoni. The source holds these as a separate data set.
Assay [3] has as its system Schistosoma mansoni. This is another data set of the same source.

For the compound `Oc1ccc(Br)cc1CN1CCN(Cc2ccc(Cl)cc2)CC1`, the values for the Toxicity with Schistosoma mansoni [1], with Schistosoma mansoni [2] and with Schistosoma mansoni [3] were 1, 0 and 0, respectively.

`CCN(CC)CCNc1ccnc2cc(Cl)ccc12`: the Toxicity in the assay with Schistosoma mansoni [1], in the assay on Schistosoma mansoni [2] and with Schistosoma mansoni [3] was 0 in each case.

As for `c1ccc2c(NCCc3c[nH]c4ccccc34)c3ccccc3nc2c1`, the Toxicity in the assay with Schistosoma mansoni [1] came out at 3; in the assay with Schistosoma mansoni [2], 4; in the assay on Schistosoma mansoni [3] it was 4.

As to `CCN(CC)CCNc1ccnc2cc3ccccc3cc12.O=P(O)(O)O`, the values for the Toxicity in the assay on Schistosoma mansoni [1], with Schistosoma mansoni [2] and in the assay with Schistosoma mansoni [3] were 2, 3 and 3, respectively.

In the case of `Cc1cc(C=C2SC(=Nc3ccccc3)N(C3CCCC3)C2=O)c(C)n1-c1ccc(Cl)cc1`, the Toxicity in the assay on Schistosoma mansoni [1], in the assay with Schistosoma mansoni [2] and in the assay on Schistosoma mansoni [3] was 0 each time.

On to `CCN(CC)c1ccc(NC(=O)c2cccs2)cc1`, for which the Toxicity in the assay on Schistosoma mansoni [1], in the assay on Schistosoma mansoni [2] and in the assay on Schistosoma mansoni [3] was 0 in each case.

Take `CC1CCCCN1CCCNC(=O)c1ccc2c(c1)sc1nc(-c3ccc(F)cc3)cn12` (stereo not given): the Toxicity in the assay with Schistosoma mansoni [1] is reported as 2; with Schistosoma mansoni [2], 0; with Schistosoma mansoni [3] it was 1.

Turning to `CC(NCc1ccccc1)c1cc(Cl)ccc1O` (stereo not given), the Toxicity with Schistosoma mansoni [1] was 2; in the assay with Schistosoma mansoni [2], 0; in the assay on Schistosoma mansoni [3] it was 0.

Regarding `O=C(NCC(c1ccsc1)N1CCCCCC1)c1ccc(C(F)(F)F)cc1` (stereo not given), the Toxicity in the assay with Schistosoma mansoni [1], with Schistosoma mansoni [2] and in the assay on Schistosoma mansoni [3] was 0 each time.

Regarding `Cc1ccnc(NC(c2cccc(OCc3ccccc3)c2)c2ccc3cccnc3c2O)c1` (stereo not given), the Toxicity with Schistosoma mansoni [1] was found to be 1; in the assay with Schistosoma mansoni [2], 4; in the assay on Schistosoma mansoni [3] it was 4.

As to `Cc1c(C)n(Cc2ccc(F)cc2)c2ccc(C(=O)NCc3ccco3)cc12`, the Toxicity in the assay on Schistosoma mansoni [1] came to 1; in the assay with Schistosoma mansoni [2], 2; in the assay with Schistosoma mansoni [3], 2.

Consider `C[n+]1c2ccccc2nc2ccc(NCCO)cc21`, for which the Toxicity stood at 0 in the assay with Schistosoma mansoni [1], 0 with Schistosoma mansoni [2] and 3 in the assay with Schistosoma mansoni [3].

For `CCCc1c(CC)c(=N)c2ccccc2n1C`, the figures for the Toxicity in the assay with Schistosoma mansoni [1], in the assay with Schistosoma mansoni [2] and with Schistosoma mansoni [3] were 1, 0 and 0, respectively.

Regarding `OC1=C2C(=Nc3ccccc3SC2c2ccc(Br)cc2)c2ccccc21` (stereo not given), the Toxicity in the assay on Schistosoma mansoni [1] is listed as 1; in the assay on Schistosoma mansoni [2] it was 0; in the assay on Schistosoma mansoni [3], 0.

As for `Oc1ccc(C(=C(Cl)Cl)c2ccc(O)cc2)cc1`, the Toxicity in the assay with Schistosoma mansoni [1], with Schistosoma mansoni [2] and in the assay with Schistosoma mansoni [3] was 0 throughout.

As to `COc1nc(Nc2ccc(C(C)C)cc2)nc(OC)n1`, the Toxicity in the assay with Schistosoma mansoni [1], with Schistosoma mansoni [2] and in the assay with Schistosoma mansoni [3] was 0 each time.

On to `CCOc1cc(Cl)c(C(C)NC(=O)c2ccccc2)cc1OCC` (stereo not given), for which the Toxicity in the assay with Schistosoma mansoni [1], with Schistosoma mansoni [2] and in the assay with Schistosoma mansoni [3] was 0 throughout.

As to `COc1ccc(C(=O)Nc2ccc(Cl)cc2C(=O)Nc2ccncc2)cc1`, the Toxicity with Schistosoma mansoni [1], with Schistosoma mansoni [2] and in the assay on Schistosoma mansoni [3] was 0 in each case.

Take `OC1CCCCC1C1(NC(=S)Nc2ccccc2)CCCCC1` (stereo not given): the Toxicity with Schistosoma mansoni [1], in the assay on Schistosoma mansoni [2] and with Schistosoma mansoni [3] was 0 in each case.

With `Cc1[nH]c(-c2ccc(F)cc2)cc1C(=O)NC1CCN(Cc2ccccc2)CC1`, the Toxicity is 0 in the assay on Schistosoma mansoni [1], 0 with Schistosoma mansoni [2] and 3 in the assay with Schistosoma mansoni [3].

`COC(=O)c1ccc(C2C3=C(O)CC(c4ccc(F)cc4)CC3=Nc3ccccc3N2C(=O)c2ccccc2)cc1` (stereo not given): the results for the Toxicity in the assay on Schistosoma mansoni [1], with Schistosoma mansoni [2] and in the assay with Schistosoma mansoni [3] were 0, 2 and 1, respectively.

On to `COc1cc2c3cc1Oc1c(OC)c(OC)cc4c1C(Cc1ccc(O)c(c1)Oc1ccc(cc1)CC3N(C)CC2)N(C)CC4.Cl` (stereo not given), for which the Toxicity with Schistosoma mansoni [1] worked out at 2; with Schistosoma mansoni [2], 3; in the assay on Schistosoma mansoni [3], 4.

For the compound `CCOc1ccc(CCNC(=O)c2cccs2)cc1OCC`, the Toxicity in the assay on Schistosoma mansoni [1], in the assay on Schistosoma mansoni [2] and with Schistosoma mansoni [3] was 0 each time.

On to `CCOC(=O)c1ccc2nc(-c3ccccc3)cc(O)c2c1`, for which the Toxicity turned out to be 0 with Schistosoma mansoni [1], 0 in the assay on Schistosoma mansoni [2] and 4 in the assay with Schistosoma mansoni [3].

Regarding `COc1cccc(C2(C)Nc3ccccc3-c3nc4ccccc4n32)c1` (stereo not given), the Toxicity in the assay on Schistosoma mansoni [1], with Schistosoma mansoni [2] and with Schistosoma mansoni [3] was 0 in each case.

For the compound `CCOc1cc(CNC(C)C(O)c2ccccc2)cc(Cl)c1OCC` (stereo not given), the Toxicity in the assay on Schistosoma mansoni [1] is on record as 0; with Schistosoma mansoni [2] it was 0; with Schistosoma mansoni [3], 1.

With `CCOC(=O)c1c(C)n(-c2ccc(Cl)cc2)c2ccc(OC(=O)C=Cc3ccccc3)cc12`, the Toxicity in the assay on Schistosoma mansoni [1], with Schistosoma mansoni [2] and in the assay on Schistosoma mansoni [3] was 0 each time.

For `COc1ccc(C(=O)NC(c2ccccc2Cl)c2cc(Cl)c3cccnc3c2O)cc1` (stereo not given), the Toxicity with Schistosoma mansoni [1] came out at 0; in the assay on Schistosoma mansoni [2] it was 2; in the assay on Schistosoma mansoni [3], 4.

Consider `O=C(Nc1cccc(C2=NCCN2)c1)Nc1cccc(C2=NCCN2)c1` [IMIDOCARB], for which the Toxicity in the assay on Schistosoma mansoni [1], in the assay with Schistosoma mansoni [2] and with Schistosoma mansoni [3] was 0 each time.

With `CCC(c1ccccc1)c1nn2c(-c3cccs3)nnc2s1` (stereo not given), the Toxicity in the assay on Schistosoma mansoni [1], with Schistosoma mansoni [2] and in the assay with Schistosoma mansoni [3] was 0 throughout.

Consider `O=c1cc(NC2CCN(CCCc3ccccc3)CC2)c2cc(Cl)ccc2o1`, for which the figures for the Toxicity in the assay with Schistosoma mansoni [1], in the assay with Schistosoma mansoni [2] and in the assay on Schistosoma mansoni [3] were 2, 1 and 2, respectively.

Take `O=C(NC1CCN(Cc2ccccc2)CC1)c1cc(-c2cccnc2)nc2ccc(Cl)cc12`: the Toxicity in the assay with Schistosoma mansoni [1], in the assay on Schistosoma mansoni [2] and in the assay on Schistosoma mansoni [3] was 0 each time.

`CCOC(=O)c1c(C)n(-c2ccccc2)c2ccc(OC(=O)c3cc(OC)c(OC)c(OC)c3)cc12`: the Toxicity with Schistosoma mansoni [1], with Schistosoma mansoni [2] and in the assay with Schistosoma mansoni [3] was 0 in each case.

Turning to `Cc1cc(NC(=O)c2ccc(-c3ccccc3)cc2)no1`, the Toxicity in the assay on Schistosoma mansoni [1], with Schistosoma mansoni [2] and in the assay on Schistosoma mansoni [3] was 0 each time.

Take `CN1CCN(c2c3c(c(C#N)c4nc5ccccc5n24)CCC3)CC1`: the Toxicity in the assay with Schistosoma mansoni [1], in the assay with Schistosoma mansoni [2] and in the assay with Schistosoma mansoni [3] was 0 each time.

As for `O=C(O)C(=O)O.Oc1ccccc1CN1CCN(C(c2ccccc2)c2ccccc2)CC1`, the Toxicity in the assay with Schistosoma mansoni [1], with Schistosoma mansoni [2] and with Schistosoma mansoni [3] was 0 in each case.

For `CCc1ccc(CNCC(O)c2ccccc2)cc1.Cl` (stereo not given), the Toxicity in the assay on Schistosoma mansoni [1] is listed as 1; in the assay on Schistosoma mansoni [2], 0; in the assay with Schistosoma mansoni [3] it was 1.

On to `CN(C)c1ccc(C=Cc2nc(=O)c3ccccc3o2)cc1`, for which the Toxicity with Schistosoma mansoni [1], in the assay on Schistosoma mansoni [2] and in the assay on Schistosoma mansoni [3] was 0 in each case.

Consider `O=C(Nc1ccc(CN2CCOCC2)cc1)c1ccc(-c2cc(Cl)ccc2Cl)o1`, for which the Toxicity in the assay on Schistosoma mansoni [1] worked out at 0; in the assay with Schistosoma mansoni [2], 2; with Schistosoma mansoni [3] it was 0.

For the compound `COc1cccc(Nc2nc(N)c3ccccc3n2)c1.Cl`, the Toxicity in the assay on Schistosoma mansoni [1], with Schistosoma mansoni [2] and in the assay on Schistosoma mansoni [3] was 0 in each case.

As for `COc1ccc(Br)cc1C1Nc2ccc3ccccc3c2C2=C1C(=O)CC(c1ccccc1)C2` (stereo not given), the Toxicity in the assay on Schistosoma mansoni [1], in the assay with Schistosoma mansoni [2] and with Schistosoma mansoni [3] was 0 in each case.

Consider `CC1CN(C(=O)c2sc3ccccc3c2Cl)CC(C)O1` (stereo not given), for which the Toxicity in the assay on Schistosoma mansoni [1], with Schistosoma mansoni [2] and with Schistosoma mansoni [3] was 0 each time.

Take `COc1ccc(CCn2c(=N)c(C(=O)NCc3cccnc3)cc3c(=O)n4cccc(C)c4nc32)cc1`: the Toxicity is listed as 2 in the assay on Schistosoma mansoni [1], 0 with Schistosoma mansoni [2] and 4 in the assay with Schistosoma mansoni [3].

Take `COc1ccc(C2NCCc3c2[nH]c2ccccc32)cc1CN1CCN(c2ccc(F)cc2)CC1.Cl` (stereo not given): the Toxicity in the assay on Schistosoma mansoni [1] was 3; in the assay on Schistosoma mansoni [2] it was 4; with Schistosoma mansoni [3], 4.

On to `Cc1ccc2c(C)nc(Nc3nc(C)cc(-c4ccccc4)n3)nc2c1`, for which the Toxicity in the assay on Schistosoma mansoni [1], in the assay with Schistosoma mansoni [2] and with Schistosoma mansoni [3] was 0 throughout.

As to `Cc1ccc(Nc2nc(NCCO)c3ccccc3n2)cc1C`, the Toxicity with Schistosoma mansoni [1] came to 1; in the assay on Schistosoma mansoni [2], 0; in the assay with Schistosoma mansoni [3], 1.

For the compound `COc1ccc(C2N(C)c3ccccc3N2C)cc1`, the Toxicity with Schistosoma mansoni [1], with Schistosoma mansoni [2] and with Schistosoma mansoni [3] was 0 in each case.

As for `COc1ccc(C2c3ccc4ccccc4c3Oc3ncn(CCCn4ccnc4)c(=N)c32)cc1OC` (stereo not given), the Toxicity in the assay on Schistosoma mansoni [1], with Schistosoma mansoni [2] and with Schistosoma mansoni [3] was 0 in each case.

Take `COc1cc(C(=O)Nc2nc3c(cc4c5c(cccc53)CC4)s2)cc(OC)c1OC`: the Toxicity in the assay on Schistosoma mansoni [1], with Schistosoma mansoni [2] and with Schistosoma mansoni [3] was 0 in each case.

`Cc1sc2ncnc(Sc3nc4ccccc4[nH]3)c2c1C`: the Toxicity in the assay on Schistosoma mansoni [1] was determined as 1; in the assay with Schistosoma mansoni [2], 1; with Schistosoma mansoni [3], 0.

With `Cc1ccc(Nc2nc(-c3ccccn3)cs2)cc1`, the Toxicity with Schistosoma mansoni [1], with Schistosoma mansoni [2] and in the assay with Schistosoma mansoni [3] was 0 in each case.

In the case of `O=[N+]([O-])c1ccc(C=NNc2nc3ccccc3[nH]2)cc1`, the Toxicity was 0 with Schistosoma mansoni [1], 1 in the assay on Schistosoma mansoni [2] and 0 with Schistosoma mansoni [3].

As for `CCOc1cc2c(cc1OCC)C(c1cc(Cl)ccc1O)NCC2` (stereo not given), the Toxicity stood at 0 in the assay with Schistosoma mansoni [1], 1 with Schistosoma mansoni [2] and 0 with Schistosoma mansoni [3].

In the case of `COc1ccc(-c2cn3c(C(=O)Nc4ccccc4Cl)c(-c4ccccc4)c4c3n2CCCC4)cc1`, the Toxicity with Schistosoma mansoni [1], in the assay on Schistosoma mansoni [2] and with Schistosoma mansoni [3] was 0 each time.

Consider `O=C(Nc1ccc(Br)cc1)Nc1cccc(Cl)c1`, for which the Toxicity in the assay on Schistosoma mansoni [1] is 0; in the assay on Schistosoma mansoni [2], 0; in the assay on Schistosoma mansoni [3], 3.
